Target: T1, F508del CFTR (Homo sapiens, UniProt P13569, DEL508-508)
T1 construct: Primary CF airway epithelial cells were obtained from the UNC Cystic Fibrosis Tissue Procurement and Cell Culture Core; host or cells: primary CF airway epithelial cells
Test: Equivalent current assay in primary CF airway epithelial cells (Corrector Activity, NAUC normalized to 3 μM VX809)
Type: cell-based
Settings: NAUC as % of positive control (VX-809)
Protocol: Primary CF airway epithelial cells were obtained from the UNC Cystic Fibrosis Tissue Procurement and Cell Culture Core. The cells are grown at 37° C. in a Heracell 150i incubator using growth media (BEGM, Fischer). Cells were then transferred to differentiation media (airway liquid interface media (ALI) media; Lechner J F and LaVeck M A, J. Tissue Culture Methods 1985, 9: 43-48) for a minimum of 4 weeks on coated Costar transwells. Two days before the assay the mucus on the apical surface of the cells was aspirated after incubating with 200 μL of differentiation media for at least thirty (30) minutes. One day before the assay test compounds were added to the basolateral surface of the cells at various test concentrations dissolved in DMSO. Duplicate wells were prepared giving a n=4 or n=6 protocol.
Cells were treated for 24 hours with various combinations and concentrations of the test articles, reference standard (3 μM VX809, positive control). Compounds stock solutions were prepared in DMSO and diluted 1/1000 into ALI media to their final assay concentration. Cells were treated with combination solutions (2 mL of each dilution) and incubated at 37° C. for 24 h.
For the equivalent current assay, cells on six Transwell (24-well) plates were treated. Each Transwell plate was filled with 200 μl of HBS on the apical surface and 2 ml on the basolateral surface. Plates were placed horizontally in a heated mount at 37° C. and equilibrated for 30 minutes. Resting current was measured for 15 min and then blocked by the apical addition of 5 μM benzamil. After 20 min, CFTR activator (10 μM forskolin) and potentiator (either 1 μM VX-770 or 3 μM FDL176) were added to both the apical and basolateral side to stimulate CFTR. An increase in chloride current is seen as an upward deflection of the trace. After another 60 min, CFTR-172 (a CFTR inhibitor, 20 μM) and/or bumetanide (20 uM) was added to block CFTR mediated chloride current.
The raw data, voltage vs. time and resistance vs. time for the equivalent current assay (sampling interval: 6 minutes) were transferred to Excel (Microsoft Office Professional, version 14.0.7106.5003) for analysis. CFTR specific current was computed from I=V/R (Ohms Law), the average amplitude of the increase in current elicited upon addition forskolin and ending upon addition of the CFTR channel specific blocker CFTR-172. This average is equivalent to the sum of the average forskolin activated and the average VX770-potentiated currents. The average current measured in vehicle (0.1% DMSO) treated cells, IV, was subtracted from the current for the test article, ITA, or from the corrector reference standard VX809 (3 uM, ISTD). For replicate measurements, the averaged vehicle subtracted response for the test article, was normalized to the averaged vehicle subtracted response of the reference corrector VX809 (3 μM).
INSC=(ITA−IV)(ave)/(ISTD−IV)(ave) (Equation 1)
A second endpoint, for the equivalent current assay, evaluated was NAUC, the normalized area under the curve (AUC) measuring the response after addition of forskolin and potentiator to the time point right before the addition of the CFTR inhibitor. The AUC is effectively the average response multiplied by the duration of the response. The AUC of the test article, AUCTA was then corrected by subtracting the average vehicle response, AUCV,ave over the same time range, and normalized as for the inhibitor-sensitive current to the difference of the corrector reference standard VX809 (3 μM VX809r,ave and the vehicle response:
NAUCTA=[AUCTA−AUCV,ave]/[AUCVx809r,ave−AUCV,ave] (Equation 2).
The normalized value for DMSO is 0.0 and for VX-809 alone is 1.0 for both of these equations.
Experiments were run with a minimum of n=4 replicates per concentration. Since the distribution for the ratio of two normal distributions is a Cauchy distribution, the median value must be used for the average and the average deviation must be used for the error of all normalized data. […]

T1 sequence (P13569 with tags, fused parts or gaps DEL508-508): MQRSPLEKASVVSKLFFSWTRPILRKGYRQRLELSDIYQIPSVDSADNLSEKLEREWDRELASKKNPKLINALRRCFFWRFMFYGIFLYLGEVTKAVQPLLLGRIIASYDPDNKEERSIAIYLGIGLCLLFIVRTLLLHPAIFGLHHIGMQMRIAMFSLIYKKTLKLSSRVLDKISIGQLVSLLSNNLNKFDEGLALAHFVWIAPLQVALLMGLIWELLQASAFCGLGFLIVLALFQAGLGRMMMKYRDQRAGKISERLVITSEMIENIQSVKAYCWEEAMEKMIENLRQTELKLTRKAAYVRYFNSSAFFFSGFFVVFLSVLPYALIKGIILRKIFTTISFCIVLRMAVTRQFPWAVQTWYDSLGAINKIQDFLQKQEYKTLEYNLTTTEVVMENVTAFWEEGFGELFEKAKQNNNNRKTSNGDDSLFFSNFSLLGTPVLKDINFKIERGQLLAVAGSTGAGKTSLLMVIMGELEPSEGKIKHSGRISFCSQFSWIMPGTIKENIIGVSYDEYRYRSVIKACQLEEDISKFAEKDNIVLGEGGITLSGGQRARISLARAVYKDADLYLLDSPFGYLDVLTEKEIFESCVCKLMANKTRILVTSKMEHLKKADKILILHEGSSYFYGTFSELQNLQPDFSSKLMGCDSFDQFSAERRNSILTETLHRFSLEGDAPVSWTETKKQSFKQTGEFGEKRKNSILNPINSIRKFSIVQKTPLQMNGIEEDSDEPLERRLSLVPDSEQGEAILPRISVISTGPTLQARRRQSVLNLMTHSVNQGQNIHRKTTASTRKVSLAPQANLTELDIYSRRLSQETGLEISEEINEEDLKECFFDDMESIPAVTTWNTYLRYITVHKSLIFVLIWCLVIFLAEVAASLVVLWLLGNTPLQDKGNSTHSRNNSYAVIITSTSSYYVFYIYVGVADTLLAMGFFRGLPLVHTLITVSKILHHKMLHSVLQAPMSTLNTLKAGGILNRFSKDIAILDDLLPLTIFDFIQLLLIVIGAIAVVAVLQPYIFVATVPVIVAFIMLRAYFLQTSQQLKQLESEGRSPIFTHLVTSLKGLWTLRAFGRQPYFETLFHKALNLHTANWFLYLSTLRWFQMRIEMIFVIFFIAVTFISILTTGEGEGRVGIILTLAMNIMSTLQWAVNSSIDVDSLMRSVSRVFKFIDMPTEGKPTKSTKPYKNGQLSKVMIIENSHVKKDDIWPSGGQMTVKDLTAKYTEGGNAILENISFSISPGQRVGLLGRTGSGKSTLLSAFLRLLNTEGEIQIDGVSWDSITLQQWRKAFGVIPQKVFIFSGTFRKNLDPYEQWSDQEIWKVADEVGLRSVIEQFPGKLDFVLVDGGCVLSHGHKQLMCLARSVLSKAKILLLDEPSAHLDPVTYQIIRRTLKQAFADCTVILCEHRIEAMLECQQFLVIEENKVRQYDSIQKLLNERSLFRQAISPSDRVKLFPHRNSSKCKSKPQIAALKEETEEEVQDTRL

| SMILES | Corr Activity (NAUC) |
| --- | --- |
| CN(C(=O)Cn1nc(-c2cccc(Cl)c2)c2oc(C(=O)NCCO)cc2c1=O)c1ccc2c(c1)OC(F)(F)O2 [Example 212] | + (NAUC<40% of positive control) |
| CCN(C(=O)Cn1nc(-c2cccc(OC(F)(F)F)c2)c2occc2c1=O)c1ccc2nc(C)oc2c1 [Example 94] | ++ (NAUC 70-40% of positive control) |
| Cc1c(N(C)C(=O)Cn2nc(-c3cc(F)cc(C#N)c3)c3occc3c2=O)ccc2c1OC(F)(F)O2 [Example 170] | ++ (NAUC 70-40% of positive control) |
| O=C(Cn1nc(-c2cccc(F)c2)c2occc2c1=O)N1CCCc2c1ccc1c2OC(F)(F)O1 [Example 102] | ++ (NAUC 70-40% of positive control) |
| CCN(C(=O)Cn1nc(-c2cc(Cl)cc(OC)c2)c2[nH]cnc2c1=O)c1ccc2c(c1)OC(F)(F)O2 [Example 257] | +++ (NAUC>70% of positive control) |
| Cc1cc(Cl)cc(-c2nn(CC(=O)N(C)c3ccc4c(c3)OC(F)(F)O4)c(=O)c3ccoc23)c1 [Example 85] | +++ (NAUC>70% of positive control) |
| CCN(C(=O)Cn1nc(-c2cc(F)cc(OC)c2)c2[nH]cnc2c1=O)c1ccc2c(c1)OC(F)(F)O2 [Example 261] | +++ (NAUC>70% of positive control) |
| CCN(C(=O)Cn1nc(-c2cc(F)cc(F)c2)c2occc2c1=O)c1ccc2c(c1)OC(F)(F)O2 [Example 175] | +++ (NAUC>70% of positive control) |
| CCN(C(=O)Cn1nc(-c2cccc(C#N)c2)c2oc(C(=O)N(C)C(C)(C)C)cc2c1=O)c1ccc2c(c1)OC(F)(F)O2 [Example 208] | +++ (NAUC>70% of positive control) |
| CCN(C(=O)Cn1nc(-c2cc(F)cc(OC)c2)c2oc(C3CCC3)cc2c1=O)c1ccc2c(c1)OC(F)(F)O2 [Example 241] | +++ (NAUC>70% of positive control) |
| CCN(C(=O)Cn1nc(-c2cccc(C#N)c2)c2oc(Cl)cc2c1=O)c1ccc2c(c1)OC(F)(F)O2 [Example 63] | ++ (NAUC 70-40% of positive control) |
| CN(C(=O)Cn1nc(-c2cccc(OC(F)(F)F)c2)c2occc2c1=O)c1ccc2c(c1)OC(F)(F)O2 [Example 90] | ++ (NAUC 70-40% of positive control) |
| O=C(Cn1nc(-c2cccc(Cl)c2)c2occc2c1=O)N1CCCc2c1ccc1c2OC(F)(F)O1 [Example 51] | ++ (NAUC 70-40% of positive control) |
| CN(C(=O)Cn1nc(-c2cccc(OC(C)(C)C)c2)c2oc(C(=O)NC(C)(C)C)cc2c1=O)c1ccc2c(c1)OC(F)(F)O2 [Example 123] | + (NAUC<40% of positive control) |
| CCN(C(=O)Cn1nc(-c2cc(C#N)cc(OC)c2)c2oc(C3CCC3)cc2c1=O)c1ccc2c(c1)OC(F)(F)O2 [Example 239] | + (NAUC<40% of positive control) |
| CCc1c(N(CC)C(=O)Cn2nc(-c3cccc(C#N)c3)c3occc3c2=O)ccc2c1OC(F)(F)O2 [Example 55] | +++ (NAUC>70% of positive control) |
| CCc1cc2c(cc1N(CC)C(=O)Cn1nc(-c3cccc(C#N)c3)c3occc3c1=O)OC(F)(F)O2 [Example 56] | + (NAUC<40% of positive control) |
| CCN(C(=O)Cn1nc(-c2cc(F)cc(CC#N)c2)c2[nH]cnc2c1=O)c1ccc2c(c1)OC(F)(F)O2 [Example 252] | ++ (NAUC 70-40% of positive control) |
| CN(C(=O)Cn1nc(-c2cccc(F)c2)c2sccc2c1=O)c1ccc2c(c1)CCC2 [Example 3] | +++ (NAUC>70% of positive control) |
| CN(C(=O)Cn1nc(-c2cccc(C#N)c2)c2oc(Cl)cc2c1=O)c1ccc2c(c1)OC(F)(F)O2 [Example 64] | ++ (NAUC 70-40% of positive control) |
| CN(C(=O)Cn1nc(-c2cccc(C#N)c2)c2oc(C(F)F)cc2c1=O)c1ccc2c(c1)OC(F)(F)O2 [Example 180, 2-(7-(3-cyanophenyl)-2-(difluoromethyl)-4-oxofuro[2,3-d]pyridazin-5(4H)-yl)-N-(2,2-difluorobenzo[d][1,3]dioxol-5-yl)-N-methylacetamide] | +++ (NAUC>70% of positive control) |
| CCN(C(=O)Cn1nc(-c2cc(Cl)cc(OC)c2)c2oc(C3CC3)cc2c1=O)c1ccc2c(c1)OC(F)(F)O2 [Example 227] | +++ (NAUC>70% of positive control) |
| Cc1cc2c(cc1N(C)C(=O)Cn1nc(-c3cc(Cl)cc(C#N)c3)c3occc3c1=O)OC(F)(F)O2 [Example 168] | +++ (NAUC>70% of positive control) |
| CCN(C(=O)Cn1nc(-c2cccc(F)c2)c2occc2c1=O)c1ccc2c(c1F)OC(F)(F)O2 [Example 109] | +++ (NAUC>70% of positive control) |
| CN(C(=O)Cn1nc(-c2cc(Cl)cc(C#N)c2)c2[nH]cnc2c1=O)c1ccc2c(c1)OC(F)(F)O2 [Example 243] | +++ (NAUC>70% of positive control) |
| Cc1c(N(C)C(=O)Cn2nc(-c3cc(Cl)cc(C#N)c3)c3occc3c2=O)ccc2c1OC(F)(F)O2 [Example 171] | +++ (NAUC>70% of positive control) |
| CCN(C(=O)Cn1nc(-c2cc(Cl)cc(C#N)c2)c2oc(C(F)F)cc2c1=O)c1ccc2c(c1)OC(F)(F)O2 [Example 192] | +++ (NAUC>70% of positive control) |

Continued, values first:

| Corr Activity (NAUC) | SMILES |
| --- | --- |
| + (NAUC<40% of positive control) | COc1cc(C)cc(-c2nn(CC(=O)N(c3ccc4c(c3)OC(F)(F)O4)C3CC3)c(=O)c3nc[nH]c23)c1 [Example 395] |
| +++ (NAUC>70% of positive control) | CCN(C(=O)Cn1nc(-c2ccc(OC)c(C#N)c2)c2[nH]cnc2c1=O)c1ccc2c(c1)OC(F)(F)O2 [Example 346] |
| +++ (NAUC>70% of positive control) | CCN(C(=O)Cn1nc(-c2cc(C)cc(F)c2)c2[nH]cnc2c1=O)c1ccc2c(c1)OC(F)(F)O2 [Example 262] |
| +++ (NAUC>70% of positive control) | CCN(C(=O)Cn1nc(-c2cc(C#N)cc(C(F)(F)F)c2)c2[nH]cnc2c1=O)c1ccc2c(c1)OC(F)(F)O2 [Example 281] |
| ++ (NAUC 70-40% of positive control) | Cc1cc(F)cc(-c2nn(CC(=O)N(c3ccc4c(c3)OC(F)(F)O4)C3CC3)c(=O)c3nc[nH]c23)c1 [Example 385] |
| ++ (NAUC 70-40% of positive control) | CCN(C(=O)Cn1nc(-c2cc(C)cc(C(F)(F)F)c2)c2[nH]cnc2c1=O)c1ccc2c(c1)OC(F)(F)O2 [Example 279] |
| + (NAUC<40% of positive control) | CCN(C(=O)Cn1nc(-c2ccc(O)c(Cl)c2)c2[nH]cnc2c1=O)c1ccc2c(c1)OC(F)(F)O2 [Example 327] |
| +++ (NAUC>70% of positive control) | N#Cc1cc(-c2nn(CC(=O)N(c3ccc4c(c3)OC(F)(F)O4)C3CC3)c(=O)c3nc[nH]c23)ccc1N1CCC(F)(F)C1 [Example 489] |
| +++ (NAUC>70% of positive control) | Cc1cc(Cl)cc(-c2nn(CC(=O)N(c3ccc4c(c3)OC(F)(F)O4)C3CC3)c(=O)c3nc[nH]c23)c1 [Example 392] |
| + (NAUC<40% of positive control) | CCN(C(=O)Cn1nc(-c2ccc(S(=O)(=O)NC(C)(C)C)c(C)c2)c2[nH]cnc2c1=O)c1ccc2c(c1)OC(F)(F)O2 [Example 355] |
| +++ (NAUC>70% of positive control) | CCN(C(=O)Cn1nc(-c2ccc(N3CCCC3)c(C#N)c2)c2[nH]cnc2c1=O)c1ccc2c(c1)OC(F)(F)O2 [Example 352] |
| ++ (NAUC 70-40% of positive control) | Cc1cc(-c2nn(CC(=O)N(c3ccc4c(c3)OC(F)(F)O4)C3CC3)c(=O)c3nc[nH]c23)cc(C(F)(F)F)c1 [Example 402] |
| +++ (NAUC>70% of positive control) | CCN(C(=O)Cn1nc(-c2cc(Cl)cc(OCCOC)c2)c2[nH]cnc2c1=O)c1ccc2c(c1)OC(F)(F)O2 [Example 276] |
